Where “and” joins values, the source holds several entries; their conditions need not be identical. Identical values can stand only once.
Assays:
Tg4510 mice = assay: Morris water maze test in Tg4510 mice; assay type: in vivo; conditions: 12 mg/kg, 4-weeks treatment, versus vehicle-treated Tg4510 mice
Method: Female Tg4510 and control mice were purchased from the Jackson Laboratory (Bar Harbor, Me.). All mice were examined and weighed prior to initiation of the study to ensure adequate health and suitability and were caged under controlled temperature (20-23° C.) and relative humidity (maintained around 50%). All tests were performed during the animal's light cycle phase. Mice received every-other-day injections of either vehicle or compound 390 (12 mg/kg) in the following groups: (a) wild-type (WT) mice receiving vehicle (n=16); (b) Tg4510 mice receiving vehicle (n=15) and (c) Tg4510 mice receiving DL390 (12 mg/kg; n=15)
The test was performed in a circular tank, measuring 48″ in diameter. Extra-maze cues were mounted around the water tank. On 5 consecutive days of the week, test sessions were conducted with the platform submerged approximately 1.3 cm below the surface of the water. On each day, there were 4 trials, 60 s long. Approximately 15 min elapsed between each trial. On the fifth day of acquisition training, the last trial (out of 4) consisted of 60 s without the platform.

mTORC2 = mTORC2 (Mus musculus, UniProt P26883+Q9JLN9); assay: Western blot of mouse tissues after 3 weeks i.p. dosing, mTORC2 (P-AKT/Total AKT); assay type: in vivo, female C57BL/6J mice; conditions: soleus muscle, 12 mg/kg i.p. every other day for 3 weeks
Method: (§1) 10-week old female C57BL/6J mice were given intraperitoneal injections of 8 mg/kg rapamycin (LC laboratories), 12 mg/kg compound 390 or vehicle every other day for three weeks (N=5 mice/group), such as to mimic chronic exposure conditions. 24 hours after the last injection, tissues were dissected from the mice and immediately frozen in liquid nitrogen. The tissues were homogenized using the Omni TH homogenizer (Omni International) on ice in RIPA buffer and then centrifuged at 13,000 rpm for 15 minutes at 4° C. The supernatants were collected and protein concentration was determined using the DC protein assay (Biorad).
The mTORC1/2 inhibition was determined by Western blots. Equal amounts of protein were resolved by SDS-PAGE and transferred to nitrocellulose membrane using the Invitrogen Nu-Page system. The membranes were blocked for 1 h in 5% milk and incubated overnight in the appropriate antibodies. The following day, blots were washed 3 times in TBST, incubated for 2 h with secondary antibodies (donkey anti rabbit hrp conjugated), and finally washed an additional 3 times in TBST. ECL Prime (Amersham) was used to detect the proteins of interest and ImageJ software was used to quantify the band intensity of the Western blots.

[1] = Glucose tolerance test after 2 weeks of chronic dosing; assay type: in vivo, male C57BL/6J mice; conditions: rapamycin 8 mg/kg, compound 390 12 mg/kg every other day, male mice
Method: (§2) Fortyfive C57BL/6J male mice, housed three per cage, were weighed and their body composition was measured with an EchoMRI 3-in-1 system. […] Mice received every-other-day injections of either vehicle, rapamycin (8 mg/kg), or compound 390 (12 mg/kg). A glucose tolerance test was performed after 2 weeks (morning after the 8th injection). A pyruvate tolerance test was performed after 3 weeks. Glucose stimulated insulin secretion assay was performed after 4 weeks and additional blood was collected for whole blood analysis. Body composition was measured on day −2 and day 31.
Mice were fasted overnight for 16 hours and then injected with either glucose (1 g/kg) or pyruvate (2 g/kg) intraperitoneally. For glucose and pyruvate tolerance tests, small blood samples were taken from a tail vein nick at time intervals and read using a Bayer Contour blood glucose meter and test strips. For glucose-stimulated insulin secretion, blood glucose levels were read using a glucometer and then 50 μL of blood was collected into a heparinized tube immediately prior to and 15 minutes following glucose administration. Insulin levels were determined using a Mouse Insulin ELISA kit (Crystal Chem).

[2] = Plasma lipid levels after chronic i.p. dosing; assay type: in vivo, female C57BL/6J mice; conditions: rapamycin 8 mg/kg, compound 390 12 mg/kg i.p. every other day; versus vehicle
Method: as §1
Plasma lipid levels were determined at the end of the three-week exposure. Free fatty acids in the serum were measured by the HR Series NEFA-HR(2) (Wako Diagnostics, Richmond, Va.). Triglycerides and cholesterol in serum were measured by Triglycerides Liquicolor Test and Cholesterol Liquicolor Test (Stanbio laboratory, Boerne, Tex.), respectively.

mTORC2 complex = mTORC2 complex (Mus musculus, UniProt P26883+Q9JLN9); assay: mTORC2 assembly: immunoprecipitation of Rictor from liver and immunoblotting for mTOR; assay type: in vivo, male C57BL/6J mice; conditions: liver, four weeks; rapamycin 8 mg/kg, compound 390 12 mg/kg i.p. every other day
Method: as §2

mTORC1 = biological target: T1, mTORC1 (Homo sapiens, UniProt P42345+P62942); assay: AlphaLISA SureFire in PC3 cells, phosphorylation of S6 at Ser240/Ser244 (mTORC1 inhibition, selectivity ratios); assay type: cell-based
T1 construct: endogenous in cells; host or cells: PC3 cells
Method: PC3 cells were maintained in F12K media (ATCC/GIBCO, Cat# ATCC 30-2004) supplemented with additional 10% FBS (Gemini, cat#100-106), 1% Penicillin/Streptomycin (Life Technologies, cat #15140-122), and 2 mM L-Glutamine (Life Technologies, cat#25030) and cultured at 37° C. For AlphaLISA experiments, cells were seeded in 96-well plates for 24 hours and treated at various concentrations of compound (from approx. 8 fM to 10 μM) for 24 hours. Cells were harvested by lysis in the buffer supplied with the AlphaLISA kit. […] Cells from plates were lysed and incubated for 10 min at room temperature while shaking. Cell lysates were incubated with acceptor mix for 2 hours at room temperature; the donor mix was then added and the resulting solution was incubated for 2 hours at room temperature. AlphaLISA® signal was determined on a Fusion-Alpha FP HT (Perkin Elmer). Percent inhibition was calculated by comparison to the highest inhibition value obtained in the response-concentration curve. IC50s were calculated using Prism software.

[3] = Fat mass by EchoMRI body composition after four weeks; assay type: in vivo, male C57BL/6J mice; conditions: 4 weeks of every other day administration; rapamycin 8 mg/kg, compound 390 12 mg/kg; versus vehicle
Method: Fortyfive C57BL/6J male mice, housed three per cage, were weighed and their body composition was measured with an EchoMRI 3-in-1 system. Cages were sorted into three groups—vehicle, rapamycin, and compound 390—such that the average weight was similar for all three groups. Mice received every-other-day injections of either vehicle, rapamycin (8 mg/kg), or compound 390 (12 mg/kg). A glucose tolerance test was performed after 2 weeks (morning after the 8th injection). A pyruvate tolerance test was performed after 3 weeks. Glucose stimulated insulin secretion assay was performed after 4 weeks and additional blood was collected for whole blood analysis. Body composition was measured on day −2 and day 31.

[4] = heart, visceral fat, pancreas, kidney

Sequence of mTORC2 (P26883 2-108 limits assumed, other chains not shown): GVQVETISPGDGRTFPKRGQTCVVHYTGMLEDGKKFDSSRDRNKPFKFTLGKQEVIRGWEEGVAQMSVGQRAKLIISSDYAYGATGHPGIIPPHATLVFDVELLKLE
Sequence of mTORC2 complex (P26883 2-108 limits assumed, other chains not shown): as above

Question: For `CO[C@H]1CC2CC[C@@H](C)[C@@](O)(O2)C(=O)C(=O)N2CCCC[C@H]2C(=O)O[C@H]([C@@H](C)CC2CCC(O)CC2)CC(=O)[C@@H](C)/C=C(\C)[C@H](O)[C@H](O)C(=O)[C@@H](C)C[C@H](C)/C=C/C=C/C=C/1C` (stereo partly drawn) [compound 390, 27-O-Desmethyl-39-Desmethoxy Rapamycin], which “behavioral performance, total distance travelled during acquisition days” value (Tg4510 mice) is on record?
Answer: strong trends of behavioral improvement

Question: And the “mTORC2 inhibition in tissues” value (mTORC2; gastrocnemius muscle, lung, liver)?
Answer: very weak

Question: And the “change of mTORC2 activity in tissues” value (mTORC2; [4])?
Answer: small upregulation of mTORC2 activity

Question: What about the “mTORC2 inhibition in tissues” value (mTORC2; [4]) of the same compound?
Answer: no inhibition of mTORC2

Question: And the glucose tolerance test ([1]; after 2 weeks)?
Answer: identical to the vehicle-receiving animals

Question: And the fasting hyperglycemia ([1]; chronic dosing)?
Answer: does not cause

Question: And the plasma cholesterol [2]?
Answer: did not produce any changes

Question: What about the “plasma free fatty acids” value [2] of the same compound?
Answer: did not produce any changes

Question: And the plasma triglycerides [2]?
Answer: did not produce any changes

Question: What about the “integrity of hepatic mTORC2 complex assembly” value (mTORC2 complex) of the same compound?
Answer: no effect upon hepatic mTORC2 assembly

Question: And the “improvement of mTORC1 over mTORC2 selectivity compared to rapamycin (average)” value (mTORC1; AlphaLISA IC50 ratios)?
Answer: 51 fold

Question: What about the “improvement of mTORC1 over mTORC2 selectivity compared to rapamycin (range)” value (mTORC1; AlphaLISA IC50 ratios) of the same compound?
Answer: 52-63 fold

Question: What about the “Average IC50^mTORC2/IC50^mTORC1” value (mTORC1; average of four replicates, 24 h) of the same compound?
Answer: 429.90

Question: And the “IC50^mTORC2/IC50^mTORC1” value (mTORC1; single replicates #1-#4 (N = 3 each), mTORC2 IC50 of the measurement divided by average mTORC1 IC50, 24 h, listed as nID390)?
Answer: 477.07 and 533.79 and 445.85 and 262.89

Question: And the “fat mass (adiposity)” value [3]?
Answer: does not induce any increase of adiposity

From patent publication US20180258100A1, “RAPAMYCIN ANALOGS SHOWING IMPROVED mTORC1 SPECIFICITY” (priority 2015, published 2018)
